Assay results from PubChem BioAssay AID1963829 (Molecular Pharmacology Branch, DTP, NCI, 2024).

tested on: 935938-334-R-J1-PDC complex spheroid viability; experiment: Anticancer human tumor 935938-334-R-J1-PDC patient-derived small intestine adenocarcinoma cell line growth inhibition [POLQ]; details: curve of first compound; second compound 10 µM
Method in brief: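 Complex spheroid viability model combining PDC tumour cells with endothelial (HUVEC) and MSC stromal cells. Novobiocin, ART-558 or RP6685 were tested singly and in combination with standard and investigational anticancer drugs. Each was titrated in half-log steps from near clinical Cmax, or from 10 microM where Cmax was unknown.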
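Note: spheroids exposed to drugs for seven days before viability read.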
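Throughout, for viability, T/C: 100% = DMSO vehicle control wells.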

| Compound | IC50 |
| --- | --- |
| O=c1[nH]cc(F)c(=O)[nH]1 + Cc1cccc(N(C)C(=O)C2C(O)CCN2c2nc(C)cc(C(F)(F)F)c2C#N)c1 | > 10 µM |
| CC1COCCN1c1cc(C2(S(C)(=N)=O)CC2)nc(-c2ccnc3[nH]ccc23)n1 (configuration not stated) + Nc1ccc(C#CCN(C(=O)Cc2ncc(C(F)(F)F)cc2C(F)(F)F)c2ccc(F)cc2)nn1 | 1.81 µM |
| CCCS(=O)(=O)Nc1ccc(F)c(C(=O)c2c[nH]c3ncc(-c4ccc(Cl)cc4)cc23)c1F + Cc1cccc(N(C)C(=O)C2C(O)CCN2c2nc(C)cc(C(F)(F)F)c2C#N)c1 | 9.01 µM |
| COc1ccc([C@@H](O)c2cc(-c3ncnc4cc(N5CCOCC5)ccc34)c(F)cc2Cl)nn1 + Cc1cccc(N(C)C(=O)C2C(O)CCN2c2nc(C)cc(C(F)(F)F)c2C#N)c1 | 2.58 µM |
| CC(C)n1c(=O)n(C)c2cnc3cc(F)c(-c4ccc(OCCCN5CCCCC5)nc4)cc3c21 + Cc1cccc(N(C)C(=O)C2C(O)CCN2c2nc(C)cc(C(F)(F)F)c2C#N)c1 | > 10 µM |
| COc1cccc(OCCCN)c1-c1cc(Nc2cnc(C#N)cn2)n[nH]1 + Cc1cccc(N(C)C(=O)C2C(O)CCN2c2nc(C)cc(C(F)(F)F)c2C#N)c1 | 0.0385 µM |

same assay, conditions: second compound 0.0316 µM; first compound 0.00316 µM; stronger effect = lower value

| Compound | viability, T/C |
| --- | --- |
| COc1cccc(OCCCN)c1-c1cc(Nc2cnc(C#N)cn2)n[nH]1 + Cc1cccc(N(C)C(=O)C2C(O)CCN2c2nc(C)cc(C(F)(F)F)c2C#N)c1 | 118% |

same assay, conditions: second compound 0.0316 µM; first compound 0.01 µM; stronger effect = lower value

| Compound | viability, T/C |
| --- | --- |
| COc1cccc(OCCCN)c1-c1cc(Nc2cnc(C#N)cn2)n[nH]1 + Cc1cccc(N(C)C(=O)C2C(O)CCN2c2nc(C)cc(C(F)(F)F)c2C#N)c1 | 94.9% |

same assay, conditions: second compound 0.0316 µM; first compound 0.0316 µM; stronger effect = lower value

| Compound | viability, T/C |
| --- | --- |
| O=C(Nc1ccc(O)c(NS(=O)(=O)c2ccc(F)cc2)c1)c1ccc(-c2ccccc2)cc1 + COC1C(OC(N)=O)C(O)C(Oc2ccc3c(O)c(NC(=O)c4ccc(O)c(CC=C(C)C)c4)c(=O)oc3c2C)OC1(C)C | 77.9% |
| O=c1[nH]cc(F)c(=O)[nH]1 + Cc1cccc(N(C)C(=O)C2C(O)CCN2c2nc(C)cc(C(F)(F)F)c2C#N)c1 | 131% |
| CC1COCCN1c1cc(C2(S(C)(=N)=O)CC2)nc(-c2ccnc3[nH]ccc23)n1 (configuration not stated) + Nc1ccc(C#CCN(C(=O)Cc2ncc(C(F)(F)F)cc2C(F)(F)F)c2ccc(F)cc2)nn1 | 105% |
| CCCS(=O)(=O)Nc1ccc(F)c(C(=O)c2c[nH]c3ncc(-c4ccc(Cl)cc4)cc23)c1F + Cc1cccc(N(C)C(=O)C2C(O)CCN2c2nc(C)cc(C(F)(F)F)c2C#N)c1 | 85.3% |
| COc1ccc([C@@H](O)c2cc(-c3ncnc4cc(N5CCOCC5)ccc34)c(F)cc2Cl)nn1 + Cc1cccc(N(C)C(=O)C2C(O)CCN2c2nc(C)cc(C(F)(F)F)c2C#N)c1 | 79.3% |
| CC(C)n1c(=O)n(C)c2cnc3cc(F)c(-c4ccc(OCCCN5CCCCC5)nc4)cc3c21 + Cc1cccc(N(C)C(=O)C2C(O)CCN2c2nc(C)cc(C(F)(F)F)c2C#N)c1 | 86.8% |
| COc1cccc(OCCCN)c1-c1cc(Nc2cnc(C#N)cn2)n[nH]1 + Cc1cccc(N(C)C(=O)C2C(O)CCN2c2nc(C)cc(C(F)(F)F)c2C#N)c1 | 65.2% |

same assay, conditions: second compound 0.0316 µM; first compound 0.1 µM; stronger effect = lower value

| Compound | viability, T/C |
| --- | --- |
| O=C(Nc1ccc(O)c(NS(=O)(=O)c2ccc(F)cc2)c1)c1ccc(-c2ccccc2)cc1 + COC1C(OC(N)=O)C(O)C(Oc2ccc3c(O)c(NC(=O)c4ccc(O)c(CC=C(C)C)c4)c(=O)oc3c2C)OC1(C)C | 134% |
| O=c1[nH]cc(F)c(=O)[nH]1 + Cc1cccc(N(C)C(=O)C2C(O)CCN2c2nc(C)cc(C(F)(F)F)c2C#N)c1 | 113% |
| CC1COCCN1c1cc(C2(S(C)(=N)=O)CC2)nc(-c2ccnc3[nH]ccc23)n1 (configuration not stated) + Nc1ccc(C#CCN(C(=O)Cc2ncc(C(F)(F)F)cc2C(F)(F)F)c2ccc(F)cc2)nn1 | 83.7% |
| CCCS(=O)(=O)Nc1ccc(F)c(C(=O)c2c[nH]c3ncc(-c4ccc(Cl)cc4)cc23)c1F + Cc1cccc(N(C)C(=O)C2C(O)CCN2c2nc(C)cc(C(F)(F)F)c2C#N)c1 | 97.4% |
| COc1ccc([C@@H](O)c2cc(-c3ncnc4cc(N5CCOCC5)ccc34)c(F)cc2Cl)nn1 + Cc1cccc(N(C)C(=O)C2C(O)CCN2c2nc(C)cc(C(F)(F)F)c2C#N)c1 | 117% |
| CC(C)n1c(=O)n(C)c2cnc3cc(F)c(-c4ccc(OCCCN5CCCCC5)nc4)cc3c21 + Cc1cccc(N(C)C(=O)C2C(O)CCN2c2nc(C)cc(C(F)(F)F)c2C#N)c1 | 98.4% |
| COc1cccc(OCCCN)c1-c1cc(Nc2cnc(C#N)cn2)n[nH]1 + Cc1cccc(N(C)C(=O)C2C(O)CCN2c2nc(C)cc(C(F)(F)F)c2C#N)c1 | 36.8% |

same assay, conditions: second compound 0.0316 µM; first compound 0.316 µM; stronger effect = lower value

| Compound | viability, T/C |
| --- | --- |
| O=C(Nc1ccc(O)c(NS(=O)(=O)c2ccc(F)cc2)c1)c1ccc(-c2ccccc2)cc1 + COC1C(OC(N)=O)C(O)C(Oc2ccc3c(O)c(NC(=O)c4ccc(O)c(CC=C(C)C)c4)c(=O)oc3c2C)OC1(C)C | 107% |
| O=c1[nH]cc(F)c(=O)[nH]1 + Cc1cccc(N(C)C(=O)C2C(O)CCN2c2nc(C)cc(C(F)(F)F)c2C#N)c1 | 94.2% |
| CC1COCCN1c1cc(C2(S(C)(=N)=O)CC2)nc(-c2ccnc3[nH]ccc23)n1 (configuration not stated) + Nc1ccc(C#CCN(C(=O)Cc2ncc(C(F)(F)F)cc2C(F)(F)F)c2ccc(F)cc2)nn1 | 97.7% |
| CCCS(=O)(=O)Nc1ccc(F)c(C(=O)c2c[nH]c3ncc(-c4ccc(Cl)cc4)cc23)c1F + Cc1cccc(N(C)C(=O)C2C(O)CCN2c2nc(C)cc(C(F)(F)F)c2C#N)c1 | 117% |
| COc1ccc([C@@H](O)c2cc(-c3ncnc4cc(N5CCOCC5)ccc34)c(F)cc2Cl)nn1 + Cc1cccc(N(C)C(=O)C2C(O)CCN2c2nc(C)cc(C(F)(F)F)c2C#N)c1 | 76.8% |
| CC(C)n1c(=O)n(C)c2cnc3cc(F)c(-c4ccc(OCCCN5CCCCC5)nc4)cc3c21 + Cc1cccc(N(C)C(=O)C2C(O)CCN2c2nc(C)cc(C(F)(F)F)c2C#N)c1 | 77.5% |
| COc1cccc(OCCCN)c1-c1cc(Nc2cnc(C#N)cn2)n[nH]1 + Cc1cccc(N(C)C(=O)C2C(O)CCN2c2nc(C)cc(C(F)(F)F)c2C#N)c1 | 12.2% |

same assay, conditions: second compound 0.0316 µM; first compound 1 µM; stronger effect = lower value

| Compound | viability, T/C |
| --- | --- |
| O=C(Nc1ccc(O)c(NS(=O)(=O)c2ccc(F)cc2)c1)c1ccc(-c2ccccc2)cc1 + COC1C(OC(N)=O)C(O)C(Oc2ccc3c(O)c(NC(=O)c4ccc(O)c(CC=C(C)C)c4)c(=O)oc3c2C)OC1(C)C | 102% |
| O=c1[nH]cc(F)c(=O)[nH]1 + Cc1cccc(N(C)C(=O)C2C(O)CCN2c2nc(C)cc(C(F)(F)F)c2C#N)c1 | 84% |
| CC1COCCN1c1cc(C2(S(C)(=N)=O)CC2)nc(-c2ccnc3[nH]ccc23)n1 (configuration not stated) + Nc1ccc(C#CCN(C(=O)Cc2ncc(C(F)(F)F)cc2C(F)(F)F)c2ccc(F)cc2)nn1 | 76.1% |
| CCCS(=O)(=O)Nc1ccc(F)c(C(=O)c2c[nH]c3ncc(-c4ccc(Cl)cc4)cc23)c1F + Cc1cccc(N(C)C(=O)C2C(O)CCN2c2nc(C)cc(C(F)(F)F)c2C#N)c1 | 147% |
| COc1ccc([C@@H](O)c2cc(-c3ncnc4cc(N5CCOCC5)ccc34)c(F)cc2Cl)nn1 + Cc1cccc(N(C)C(=O)C2C(O)CCN2c2nc(C)cc(C(F)(F)F)c2C#N)c1 | 79.1% |
| CC(C)n1c(=O)n(C)c2cnc3cc(F)c(-c4ccc(OCCCN5CCCCC5)nc4)cc3c21 + Cc1cccc(N(C)C(=O)C2C(O)CCN2c2nc(C)cc(C(F)(F)F)c2C#N)c1 | 112% |
| COc1cccc(OCCCN)c1-c1cc(Nc2cnc(C#N)cn2)n[nH]1 + Cc1cccc(N(C)C(=O)C2C(O)CCN2c2nc(C)cc(C(F)(F)F)c2C#N)c1 | 8.59% |

same assay, conditions: second compound 0.0316 µM; first compound 3.16 µM; stronger effect = lower value

| Compound | viability, T/C |
| --- | --- |
| O=C(Nc1ccc(O)c(NS(=O)(=O)c2ccc(F)cc2)c1)c1ccc(-c2ccccc2)cc1 + COC1C(OC(N)=O)C(O)C(Oc2ccc3c(O)c(NC(=O)c4ccc(O)c(CC=C(C)C)c4)c(=O)oc3c2C)OC1(C)C | 89.1% |
